Where two headings read alike, the source gives them in different places. Bridge positions count the residues as written; N and C are the ends. Square brackets hold non-standard residues; d marks the D form. Ends that are not written are not given here. Peptide text beside a SMILES is read from it. * marks the point of attachment. X2 = O=C(O)CN1CCN(CC(=O)O)CCN(CC(=O)NCCN2C(=O)CC(*)C2=O)CC1; Lys(N3) = [N-]=[N+]=NCCCC[C@H](N)C(=O)O; Pra = C#CC[C@H](N)C(=O)O
Assays:
[1] = molecular target: T1, Human αvβ6 (Homo sapiens, UniProt P06756+P18564); experiment: competitive integrin binding assay (isoDGR-peroxidase probe), αvβ6-coated plates; conditions: competition with isoDGR-peroxidase on αvβ6-coated plates; mean ± SE of n independent experiments (n in the column beside)
T1 construct: purchased Bio-Techne
Description: Peptides were prepared by chemical synthesis; their identity and purity were checked by mass spectrometry (MS) and reverse-phase HPLC analysis. The affinity of peptides for αvβ6-coated plates was determined by competitive binding assay using an isoDGR peptide (an RGD mimetic) labeled with peroxidase as a probe for the integrin-binding site. Cell adhesion assays were carried out as described previously.
Figure S2. Competitive binding of isoDGR-peroxidase conjugate with peptide 5, 5a and 2a to αvβ6-coated microtiter plates.
The competitive binding assay was performed as previously described, using an isoDGR peptide (an RGD mimetic) labeled with peroxidase (isoDGR-HRP) as a probe for the integrin-binding site. A representative experiment (mean ± SE of 3-4 technical replicates) is shown. The resulting Ki values are shown (mean ± SE of n=3-7 independent experiments, see also Table […]
(1 picture or pasted object on this page, not shown here)
Figure S10. Biochemical characterization of 5a- and 2a-NOTA conjugates. […]
C) Competitive binding of isoDGR-HRP to αvβ6-coated microtiter plates with peptides and peptide-NOTA conjugates, as measured by competitive ELISA. […]
D) Stability of 5a-NOTA after labeling with 18F, as determined by RP-HPLC analysis using an […]

[2] = molecular target: T2, Human αvβ8 (Homo sapiens, UniProt P06756+P26012); design: method as in PMID 31755501; conditions: competition with isoDGR-peroxidase; mean ± SE of n independent experiments; ref [25]; read-out: Ki (competitive integrin binding assay) Human αvβ8; cited from earlier work
T2 construct: purchased Bio-Techne

[3] = molecular target: T1, Human αvβ6; design: method as in PMID 31755501; conditions: competition with isoDGR-peroxidase on αvβ6-coated plates; mean ± SE of n independent experiments; ref [25]; read-out: Ki (competitive integrin binding assay) Human αvβ6; cited from earlier work

T1 sequence (P06756 31-992 limits assumed): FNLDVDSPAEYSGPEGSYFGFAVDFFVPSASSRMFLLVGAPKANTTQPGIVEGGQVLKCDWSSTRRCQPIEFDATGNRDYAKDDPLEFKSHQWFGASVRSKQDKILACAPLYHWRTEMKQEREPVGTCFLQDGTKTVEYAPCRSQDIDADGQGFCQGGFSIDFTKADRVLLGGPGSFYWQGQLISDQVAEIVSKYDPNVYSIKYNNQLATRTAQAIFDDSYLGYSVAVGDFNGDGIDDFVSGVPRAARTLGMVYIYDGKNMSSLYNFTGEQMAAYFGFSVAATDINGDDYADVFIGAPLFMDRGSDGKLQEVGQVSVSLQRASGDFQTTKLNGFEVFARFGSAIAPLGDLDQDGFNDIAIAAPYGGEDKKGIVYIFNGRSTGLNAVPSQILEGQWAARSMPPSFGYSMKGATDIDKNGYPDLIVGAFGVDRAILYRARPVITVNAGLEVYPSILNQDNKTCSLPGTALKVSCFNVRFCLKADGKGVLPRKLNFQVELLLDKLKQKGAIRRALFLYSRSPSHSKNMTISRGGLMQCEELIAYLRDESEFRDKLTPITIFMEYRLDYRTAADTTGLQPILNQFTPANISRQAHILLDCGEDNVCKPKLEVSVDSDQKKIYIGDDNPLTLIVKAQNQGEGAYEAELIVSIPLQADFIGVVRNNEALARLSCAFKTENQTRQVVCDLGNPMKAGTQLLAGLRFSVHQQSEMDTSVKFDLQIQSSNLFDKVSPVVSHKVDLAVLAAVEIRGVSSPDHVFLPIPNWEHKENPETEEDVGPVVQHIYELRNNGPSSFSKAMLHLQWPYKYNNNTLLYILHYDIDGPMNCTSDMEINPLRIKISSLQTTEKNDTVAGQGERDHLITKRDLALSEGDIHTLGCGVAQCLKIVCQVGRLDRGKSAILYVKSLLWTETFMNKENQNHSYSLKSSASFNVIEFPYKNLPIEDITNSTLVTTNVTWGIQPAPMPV
T1 sequence (P18564 22-707 limits assumed): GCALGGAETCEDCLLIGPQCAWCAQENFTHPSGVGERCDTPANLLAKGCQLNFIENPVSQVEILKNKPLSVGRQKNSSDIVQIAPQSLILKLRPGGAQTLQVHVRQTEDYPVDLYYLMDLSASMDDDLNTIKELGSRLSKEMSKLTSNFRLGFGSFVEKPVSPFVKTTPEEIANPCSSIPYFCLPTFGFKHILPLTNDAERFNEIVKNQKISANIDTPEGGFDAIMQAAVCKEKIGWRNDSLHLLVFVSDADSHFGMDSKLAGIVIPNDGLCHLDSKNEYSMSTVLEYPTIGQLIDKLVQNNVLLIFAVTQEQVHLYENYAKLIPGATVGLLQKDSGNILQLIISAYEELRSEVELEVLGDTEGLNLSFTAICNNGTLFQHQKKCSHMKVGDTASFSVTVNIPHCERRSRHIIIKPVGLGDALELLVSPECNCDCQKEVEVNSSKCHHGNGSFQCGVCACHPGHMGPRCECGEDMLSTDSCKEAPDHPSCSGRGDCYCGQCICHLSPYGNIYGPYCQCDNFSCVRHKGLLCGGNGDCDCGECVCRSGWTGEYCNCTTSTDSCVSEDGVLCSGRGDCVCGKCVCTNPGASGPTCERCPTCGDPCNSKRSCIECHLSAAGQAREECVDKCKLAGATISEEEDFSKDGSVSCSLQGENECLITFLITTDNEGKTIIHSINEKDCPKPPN
T2 sequence (P06756 31-992 limits assumed): as the sequence (P06756 31-992 limits assumed) above
T2 sequence (P26012 43-684 limits assumed): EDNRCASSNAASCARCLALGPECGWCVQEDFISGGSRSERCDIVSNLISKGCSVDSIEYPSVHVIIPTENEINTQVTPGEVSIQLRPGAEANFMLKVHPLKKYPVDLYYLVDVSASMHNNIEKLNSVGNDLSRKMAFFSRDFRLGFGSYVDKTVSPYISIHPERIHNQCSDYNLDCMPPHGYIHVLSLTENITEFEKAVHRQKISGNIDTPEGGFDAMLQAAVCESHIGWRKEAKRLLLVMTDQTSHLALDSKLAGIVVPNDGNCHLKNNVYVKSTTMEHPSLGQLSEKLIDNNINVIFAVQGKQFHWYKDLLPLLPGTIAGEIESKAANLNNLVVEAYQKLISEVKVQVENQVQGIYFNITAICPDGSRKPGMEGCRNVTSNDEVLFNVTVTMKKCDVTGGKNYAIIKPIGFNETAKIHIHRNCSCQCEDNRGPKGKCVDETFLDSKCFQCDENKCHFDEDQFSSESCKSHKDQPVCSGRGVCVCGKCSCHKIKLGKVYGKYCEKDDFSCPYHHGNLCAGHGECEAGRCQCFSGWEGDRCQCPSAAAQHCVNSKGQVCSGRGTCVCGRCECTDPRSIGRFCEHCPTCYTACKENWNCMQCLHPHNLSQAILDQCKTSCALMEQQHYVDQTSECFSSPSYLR

Row | Compound | Ki [1] [nM] | Ki [2] [nM] | Ki [3] [nM]
1 | CC[C@H](C)[C@H](NC(=O)[C@H](CCCNC(=N)N)NC(=O)[C@H](CCC(=O)O)NC(=O)[C@H](CCC(=O)O)NC(=O)CNC(=O)[C@H](CCCNC(=N)N)NC(=O)[C@H](CC(C)C)NC(=O)[C@@H](NC(=O)[C@H](CCC(=O)O)NC(=O)[C@H](Cc1ccccc1)NC(=O)[C@@H](N)CSC1CC(=O)N(CCNC(=O)CN2CCN(CC(=O)O)CCN(CC(=O)O)CC2)C1=O)[C@@H](C)O)C(=O)N[C@@H](CC(C)C)C(=O)N[C@@H](CO)C(=O)N[C@H](C(=O)N[C@@H](CC(C)C)C(=O)N[C@@H](CCCNC(=N)N)C(=O)N[C@@H](Cc1c[nH]cn1)C(=O)N[C@@H](CCC(N)=O)C(=O)N[C@@H](CC(N)=O)C(=O)N[C@@H](CC(C)C)C(=O)N[C@@H](CC(C)C)C(=O)N[C@@H](CCCCN)C(=O)N[C@@H](CCC(=O)O)C(=O)N[C@@H](CC(C)C)C(=O)N[C@@H](CCC(N)=O)C(=O)N[C@@H](CC(=O)O)C(N)=O)[C@@H](C)CC (some centres unmarked) [2a-NOTA] (H-C(X2)FETLRGEERILSILRHQNLLKELQD-NH2) | > 1000 |  | 
2 | CFETLRGEERILSILRHQNLLKELQD-NH2 [2a] |  | > 50000 | > 50000
3 | ac-FETLRGDLRILSILRX1QNLX2KELQD-CONH2 (sidechain bridge or staple) (Ac-FETLRGDLRILSILR[Pra]QNL[Lys(N3)]KELQD-NH2; triazole 16-20; not fully specified) [compound 5, chromogranin A-derived peptide with RGDL motif and triazole-stapled alpha-helix, previously developed by the authors] |  |  | 0.6 ± 0.1
4 | CIRLDLELINFQSDLQHELLKTRLRG [5a-Scr] | > 200 |  | 

From article PMC9760430, “A stapled chromogranin A-derived peptide homes in on tumors that express αvβ6 or αvβ8 integrins” (International Journal of Biological Sciences, 2023)
